Format in all cases: cell-based
The target in assay [1] is T1, GLP-1 receptor (Homo sapiens, UniProt P43220). The assay can be described thus: HitHunter cAMP assay, GLP-1 receptor. The note with it: for EC50: CHO cells stably expressing human GLP-1 receptor, cAMP accumulation, 30 min, read-out: EC50 GLP-1R; for Emax: CHO cells, cAMP, normalized to maximum signal from GLP-1 (high) and DMSO (low), read-out: Emax GLP-1R. Background: Changes in cAMP serve as a functional read-out for many G protein-coupled receptors.
T1 sequence (P43220 24-463): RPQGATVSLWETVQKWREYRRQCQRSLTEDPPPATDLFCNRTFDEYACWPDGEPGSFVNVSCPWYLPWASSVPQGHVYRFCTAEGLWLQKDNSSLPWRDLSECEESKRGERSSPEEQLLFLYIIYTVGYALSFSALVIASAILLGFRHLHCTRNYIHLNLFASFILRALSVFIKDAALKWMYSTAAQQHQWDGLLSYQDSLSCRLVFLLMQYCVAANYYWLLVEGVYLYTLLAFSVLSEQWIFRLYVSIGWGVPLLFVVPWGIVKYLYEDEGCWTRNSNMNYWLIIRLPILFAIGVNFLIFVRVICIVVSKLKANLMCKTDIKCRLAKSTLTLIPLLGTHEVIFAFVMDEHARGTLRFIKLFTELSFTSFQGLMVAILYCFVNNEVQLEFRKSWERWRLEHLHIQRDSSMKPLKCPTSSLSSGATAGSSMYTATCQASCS
Experimental: CAMP accumulation was measured in Chinese hamster ovary (CHO) cells stably expressing the human GLP-1 receptor or GIP receptor using the HitHunter CAMP Assay for Small Molecules Kit (Eurofins). Briefly, cells were grown in Ham's F12 Nutrient Mix with 10% FBS and lifted with Cell dissociation buffer, Enzyme free, PBS based (ThermoFisher). Cells were pelleted and resuspended in Hank's buffered saline solution with 10 mM Hepes and 625 μM 3-isobutyl-1-methylxanthine. The antibody reagent was then added to cells at a 1:2 ratio and 5 μL of mixture was seeded in 384-well small volume white assay plates, at 10,000 cells/well. Cells were then treated with 50 nl compound in DMSO using an ECHO 550 acoustic dispenser (Labcyte) in a 20-point dose response format in triplicate for 30 min. Cells were the lysed and detection reagents added according to the manufacturer's protocol. After overnight incubation, luminescence was measured using a Perkin Elmer Envision plate reader. Raw data was normalized to the maximum signal from GLP-1 or GIP (high) and DMSO (low). Dose response curves were analyzed using GraphPad Prism 9.0.

For assay [2], the target named is T1, GLP-1 receptor. Nature of the assay: PathHunter β-arrestin assay, GLP-1 receptor. Further details: host or cells: PathHunter CHO-K1 GLP1R β-Arrestin Cell Line. The note with it: β-arrestin-2 recruitment, PathHunter CHO-K1 GLP1R β-Arrestin Cell Line, 90 min at 37° C.; normalized to GLP-1; read-out: GLP-1R β Arrestin EC50. A general note: Recruitment of arrestin is a read-out of receptor activation apart from second messengers.

The target in assay [3] is T2, GIP receptor (Homo sapiens, UniProt P48546).
T2 sequence (P48546 22-466): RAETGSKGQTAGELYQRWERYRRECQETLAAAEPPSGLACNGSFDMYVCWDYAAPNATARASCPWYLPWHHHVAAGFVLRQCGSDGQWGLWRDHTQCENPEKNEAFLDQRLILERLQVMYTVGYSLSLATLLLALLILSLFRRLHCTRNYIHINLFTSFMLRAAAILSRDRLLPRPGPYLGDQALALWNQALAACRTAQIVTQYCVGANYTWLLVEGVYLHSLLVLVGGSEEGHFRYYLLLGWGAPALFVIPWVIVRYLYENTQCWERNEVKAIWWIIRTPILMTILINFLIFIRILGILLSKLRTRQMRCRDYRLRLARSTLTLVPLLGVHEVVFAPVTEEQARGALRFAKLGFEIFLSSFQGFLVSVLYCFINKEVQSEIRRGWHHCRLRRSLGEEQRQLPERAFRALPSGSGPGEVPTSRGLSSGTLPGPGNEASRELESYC
Nature of the assay: PathHunter β-arrestin assay, GIP receptor. Details: host or cells: PathHunter CHO-K1 GIPR β-Arrestin Cell Line. The following applies: β-arrestin-2 recruitment, PathHunter CHO-K1 GIPR β-Arrestin Cell Line, 90 min at 37° C.; normalized to GIP; read-out: GIPR β Arrestin EC50.
Experimental: β-arrestin-2 recruitment for GLP-1 receptor or GIP receptor was measured using the DiscoverX PathHunter Detection Kit and PathHunter® CHO-K1 GLPIR β-Arrestin Cell Line or PathHunter® CHO-K1 GIPR β-Arrestin Cell Line, respectively). Briefly, cells were grown in Ham's F12 Nutrient Mix with 10% FBS and lifted with Cell dissociation buffer, Enzyme free, PBS based (ThermoFisher). Harvested cells were pelleted and resuspended in Assay Complete Cell Plating Reagent 2 and 5000 cells per well were plated in tissue culture treated 384-well small volume white assay plates. Plates were then incubated at 37° C. and 5% CO2 overnight. The media was then replaced with fresh Assay Complete Cell Plating Reagent 2. Cells were then treated with 10 nl compound in DMSO using an ECHO 550 acoustic dispenser (Labcyte) in a 20-point dose response format in duplicate for 90 min at 37° C. The assay was then completed according to the manufacturer's instructions. Luminescence was measured using a Perkin Elmer Envision plate reader. Raw data was normalized to the maximum signal from GLP-1 or GIP (high) and DMSO (low). Dose response curves were analyzed using GraphPad Prism 9.0.

The target in assay [4] is T2, GIP receptor. Nature of the assay: HitHunter cAMP assay, GIP receptor. The following applies: for EC50: CHO cells stably expressing GIP receptor, cAMP accumulation, 30 min, read-out: EC50 GIP-1R; for Emax: CHO cells, cAMP, normalized to maximum signal from GIP (high) and DMSO (low), read-out: Emax GIP-1R.

Structures are written as SMILES. *1 amine or outer side, *2 acyl side, *3 side chain or, on linkers, in order; H or OH if unused. Where a SMILES comes first, the peptide text is derived from it. Side-chain parts run from the residue outwards. [ ]: non-standard residue; d: D form. The star is where a group is joined. Isobutyryl(2-(3-CN-5-F-Ph)) = CC(C)(C(=O)*)c1cc(F)cc(C#N)c1; β2hLeu(2S) = CC(C)C[C@@H](CN[*:1])C(=O)[*:2]; C20 diacid = O=C(O)CCCCCCCCCCCCCCCCCCC(=O)*; βPro(3S) = O=C([C@H]1CCN([*:1])C1)[*:2]; γGlu = O=C(O)[C@H](CCC(=O)[*:2])N[*:1]; X57 = CO[C@@H](CN[*:1])C(=O)[*:2]; AEEA = NCCOCCOCC(=O)O; Aib = CC(C)(N)C(=O)O; Piv = CC(C)(C)C(=O)*; βAla = NCCC(=O)O Some results are limits rather than exact numbers.

For the compound `CC[C@H](C)[C@H](NC(=O)[C@H](CC(C)C)NC(=O)[C@H](Cc1c[nH]c2ccccc12)NC(=O)[C@H](CCC(N)=O)NC(=O)[C@@H](NC(=O)[C@H](Cc1ccccc1)NC(=O)[C@H](C)NC(=O)[C@H](CCCCNC(=O)COCCOCCNC(=O)COCCOCCNC(=O)CC[C@H](NC(=O)CCCCCCCCCCCCCCCCCCC(=O)O)C(=O)O)NC(=O)[C@H](CCC(N)=O)NC(=O)[C@H](C)NC(=O)[C@@H](NC(=O)[C@H](CCCCN)NC(=O)[C@H](CC(=O)O)NC(=O)[C@H](CC(C)C)NC(=O)C(C)(C)NC(=O)[C@@H](NC(=O)[C@H](CO)NC(=O)[C@H](Cc1ccc(O)cc1)NC(=O)[C@H](CC(=O)O)NC(=O)[C@H](CO)NC(=O)[C@@H](NC(=O)[C@H](Cc1ccccc1)NC(=O)[C@@H](NC(=O)CNC(=O)[C@H](CCC(=O)O)NC(=O)[C@H](CNC(=O)C(C)(C)c1cc(F)cc(C#N)c1)CC(C)C)[C@@H](C)O)[C@@H](C)O)[C@@H](C)CC)[C@@H](C)CC)C(C)C)C(=O)N[C@@H](C)C(=O)NCC(=O)NCC(=O)N1CCC[C@H]1C(=O)N[C@@H](CO)C(=O)N[C@@H](CO)C(=O)NCC(=O)N[C@@H](C)C(=O)N1CCC[C@H]1C(=O)N1CCC[C@H]1C(=O)N1CCC[C@H]1C(=O)N[C@@H](CO)C(N)=O` [Compound 193] ({Isobutyryl(2-(3-CN-5-F-Ph))}-[β2hLeu(2S)]EGTFTSDYSI[Aib]LDKIAQK([AEEA-AEEA-γGlu-C20 diacid])AFVQWLIAGGPSSGAPPPS-NH2), the EC50 (commonly the concentration needed to bring the measured effect to its halfway point) at GLP-1 receptor [1] was 10 to 100 nM; at GLP-1 receptor [2] it was over 1000 nM; at GIP receptor [3] it was over 1000 nM; at GIP receptor [4], 100 to 1000 nM. The Emax – broadly, the maximal effect, on the per cent scale that the assay sets – on GLP-1 receptor [1] is 77%; on GIP receptor [4], 70%.

For the compound `CC[C@H](C)[C@H](NC(=O)[C@H](CC(C)C)NC(=O)[C@H](Cc1c[nH]c2ccccc12)NC(=O)[C@H](CCC(N)=O)NC(=O)[C@@H](NC(=O)[C@H](Cc1ccccc1)NC(=O)[C@H](C)NC(=O)[C@H](CCCCNC(=O)COCCOCCNC(=O)COCCOCCNC(=O)CC[C@H](NC(=O)CCCCCCCCCCCCCCCCCCC(=O)O)C(=O)O)NC(=O)[C@H](CCC(N)=O)NC(=O)[C@H](C)NC(=O)[C@@H](NC(=O)[C@H](CCCCN)NC(=O)[C@H](CC(=O)O)NC(=O)[C@H](CC(C)C)NC(=O)C(C)(C)NC(=O)[C@@H](NC(=O)[C@H](CO)NC(=O)[C@H](Cc1ccc(O)cc1)NC(=O)[C@H](CC(=O)O)NC(=O)[C@H](CO)NC(=O)[C@@H](NC(=O)[C@H](Cc1ccccc1)NC(=O)[C@@H](NC(=O)CNC(=O)[C@H](CCC(=O)O)NC(=O)[C@H](CNC(=O)C(C)(C)c1cc(F)cc(C#N)c1)OC)[C@@H](C)O)[C@@H](C)O)[C@@H](C)CC)[C@@H](C)CC)C(C)C)C(=O)N[C@@H](C)C(=O)NCC(=O)NCC(=O)N1CCC[C@H]1C(=O)N[C@@H](CO)C(=O)N[C@@H](CO)C(=O)NCC(=O)N[C@@H](C)C(=O)N1CCC[C@H]1C(=O)N1CCC[C@H]1C(=O)N1CCC[C@H]1C(=O)N[C@@H](CO)C(N)=O` [Compound 194] ({Isobutyryl(2-(3-CN-5-F-Ph))}-[X57]EGTFTSDYSI[Aib]LDKIAQK([AEEA-AEEA-γGlu-C20 diacid])AFVQWLIAGGPSSGAPPPS-NH2), the EC50 was 10 to 100 nM at GLP-1 receptor [1], over 1000 nM on GLP-1 receptor [2], over 1000 nM at GIP receptor [3] and 10 to 100 nM on GIP receptor [4]. Besides, the Emax at GLP-1 receptor [1] amounted to 80%; at GIP receptor [4], 78%.

`CC[C@H](C)[C@H](NC(=O)[C@H](CC(C)C)NC(=O)[C@H](Cc1c[nH]c2ccccc12)NC(=O)[C@H](CCC(N)=O)NC(=O)[C@@H](NC(=O)[C@H](Cc1ccccc1)NC(=O)[C@H](C)NC(=O)[C@H](CCCCNC(=O)COCCOCCNC(=O)COCCOCCNC(=O)CC[C@H](NC(=O)CCCCCCCCCCCCCCCCCCC(=O)O)C(=O)O)NC(=O)[C@H](CCC(N)=O)NC(=O)[C@H](C)NC(=O)[C@@H](NC(=O)[C@H](CCCCN)NC(=O)[C@H](CC(=O)O)NC(=O)[C@H](CC(C)C)NC(=O)C(C)(C)NC(=O)[C@@H](NC(=O)[C@H](CO)NC(=O)[C@H](Cc1ccc(O)cc1)NC(=O)[C@H](CC(=O)O)NC(=O)[C@H](CO)NC(=O)[C@@H](NC(=O)[C@H](Cc1ccccc1)NC(=O)[C@@H](NC(=O)CNC(=O)[C@H](CCC(=O)O)NC(=O)[C@H]1CCN(C(=O)C(C)(C)c2cc(F)cc(C#N)c2)C1)[C@@H](C)O)[C@@H](C)O)[C@@H](C)CC)[C@@H](C)CC)C(C)C)C(=O)N[C@@H](C)C(=O)NCC(=O)NCC(=O)N1CCC[C@H]1C(=O)N[C@@H](CO)C(=O)N[C@@H](CO)C(=O)NCC(=O)N[C@@H](C)C(=O)N1CCC[C@H]1C(=O)N1CCC[C@H]1C(=O)N1CCC[C@H]1C(=O)N[C@@H](CO)C(N)=O` [Compound 195] ({Isobutyryl(2-(3-CN-5-F-Ph))}-[βPro(3S)]EGTFTSDYSI[Aib]LDKIAQK([AEEA-AEEA-γGlu-C20 diacid])AFVQWLIAGGPSSGAPPPS-NH2): the EC50 is 100 to 1000 nM on GLP-1 receptor [1], over 1000 nM on GLP-1 receptor [2], over 1000 nM on GIP receptor [3] and 100 to 1000 nM on GIP receptor [4]. For the same compound, the figures for the Emax at GLP-1 receptor [1] and on GIP receptor [4] were 51% and 72%, respectively.

With `CC[C@H](C)[C@H](NC(=O)[C@H](CC(C)C)NC(=O)[C@H](Cc1c[nH]c2ccccc12)NC(=O)[C@H](CCC(N)=O)NC(=O)[C@@H](NC(=O)[C@H](Cc1ccccc1)NC(=O)[C@H](CCC(=O)O)NC(=O)[C@H](CCCCNC(=O)COCCOCCNC(=O)COCCOCCNC(=O)CC[C@H](NC(=O)CCCCCCCCCCCCCCCCCCC(=O)O)C(=O)O)NC(=O)[C@H](CCC(N)=O)NC(=O)[C@H](C)NC(=O)[C@@H](NC(=O)[C@H](CCCCN)NC(=O)[C@H](CC(=O)O)NC(=O)[C@H](CC(C)C)NC(=O)C(C)(C)NC(=O)[C@@H](NC(=O)[C@H](CO)NC(=O)[C@H](Cc1ccc(O)cc1)NC(=O)[C@H](CC(=O)O)NC(=O)[C@H](CO)NC(=O)[C@@H](NC(=O)[C@H](Cc1ccccc1)NC(=O)[C@@H](NC(=O)CNC(=O)[C@H](CCC(=O)O)NC(=O)CCNC(=O)C(C)(C)c1cc(F)cc(C#N)c1)[C@@H](C)O)[C@@H](C)O)[C@@H](C)CC)[C@@H](C)CC)C(C)C)C(=O)N[C@@H](C)C(=O)NCC(=O)NCC(=O)N1CCC[C@H]1C(=O)N[C@@H](CO)C(=O)N[C@@H](CO)C(=O)NCC(=O)N[C@@H](C)C(=O)N1CCC[C@H]1C(=O)N1CCC[C@H]1C(=O)N1CCC[C@H]1C(=O)N[C@@H](CO)C(N)=O` [Compound 196] ({Isobutyryl(2-(3-CN-5-F-Ph))-βAla}-EGTFTSDYSI[Aib]LDKIAQK([AEEA-AEEA-γGlu-C20 diacid])EFVQWLIAGGPSSGAPPPS-NH2), the EC50 at GLP-1 receptor [1] is 0.1 to 1 nM; at GLP-1 receptor [2], over 1000 nM; at GIP receptor [3] it was over 1000 nM; at GIP receptor [4], 1 to 10 nM. Also, the Emax on GLP-1 receptor [1] worked out at 95%; on GIP receptor [4], 100%.

Regarding `CC[C@H](C)[C@H](NC(=O)[C@H](CC(C)C)NC(=O)[C@H](Cc1c[nH]c2ccccc12)NC(=O)[C@H](CCC(N)=O)NC(=O)[C@@H](NC(=O)[C@H](Cc1ccccc1)NC(=O)[C@H](C)NC(=O)[C@H](CCCCNC(=O)COCCOCCNC(=O)COCCOCCNC(=O)CC[C@H](NC(=O)CCCCCCCCCCCCCCCCCCC(=O)O)C(=O)O)NC(=O)[C@H](CCC(N)=O)NC(=O)[C@H](C)NC(=O)[C@@H](NC(=O)[C@H](CCCCN)NC(=O)[C@H](CC(=O)O)NC(=O)[C@H](CC(C)C)NC(=O)C(C)(C)NC(=O)[C@@H](NC(=O)[C@H](CO)NC(=O)[C@H](Cc1ccc(O)cc1)NC(=O)[C@H](CC(=O)O)NC(=O)[C@H](CO)NC(=O)[C@@H](NC(=O)[C@H](Cc1ccccc1)NC(=O)[C@@H](NC(=O)CNC(=O)[C@H](CCC(=O)O)NC(=O)CCNC(=O)C(C)(C)C)[C@@H](C)O)[C@@H](C)O)[C@@H](C)CC)[C@@H](C)CC)C(C)C)C(=O)N[C@@H](C)C(=O)NCC(=O)NCC(=O)N1CCC[C@H]1C(=O)N[C@@H](CO)C(=O)N[C@@H](CO)C(=O)NCC(=O)N[C@@H](C)C(=O)N1CCC[C@H]1C(=O)N1CCC[C@H]1C(=O)N1CCC[C@H]1C(=O)N[C@@H](CO)C(N)=O` [Compound 197] ({Piv-βAla}-EGTFTSDYSI[Aib]LDKIAQK([AEEA-AEEA-γGlu-C20 diacid])AFVQWLIAGGPSSGAPPPS-NH2), the EC50 on GLP-1 receptor [1] was 0.1 to 1 nM; at GLP-1 receptor [2], over 1000 nM; on GIP receptor [3] it was over 1000 nM; at GIP receptor [4], 10 to 100 nM. The Emax on GLP-1 receptor [1] worked out at 96%; on GIP receptor [4] it was 97%.
